Reference: patent US7750005B2, “Substituted hexahydropyrazino [1,2-A] pyrimidine-4,7-dione derivatives, process for their preparation and their use as medicaments” (Sanofi-Aventis Deutschland GmbH, priority 2003, dated 2010)

Tested on: female NMRI mice
Assay: Anorectic effect: cumulative condensed milk consumption after oral administration
Format: in vivo
Details: food withdrawn 24 hours, oral dose 50 mg/kg by gavage
Procedure: The anorectic effect was tested on female NMRI mice. After withdrawal of food for 24 hours, the test product was administered by gavage. The animals were housed singly with free access to drinking water and were offered condensed milk 30 minutes after administration of the product. The condensed milk consumption was determined every half hour for 7 hours, and the general wellbeing of the animals was observed. The measured milk consumption was compared with the vehicle-treated control animals.

COc1ccc(Cl)cc1S(=O)(=O)N1CCC(=O)N2C(Cc3ccc(Cl)cc3)C(=O)N(C(C)C)CC21 (centres unmarked) [Example 2, 6-(4-Chlorobenzyl)-1-(5-chloro-2-methoxybenzenesulfonyl)-8-isopropylhexahydropyrazino[1,2-a]pyrimidine-4,7-dione]
Reduction in the cumulative milk consumption as % of the control (milk consumption over 7 hours): 11 % of the control | cumulative milk consumption of the treated animals (over 7 hours, N=10, control animals 5.48 ml): 10/4.90 ml
